Assay results from patent US9637451B2, “Indole compound” (ASTELLAS PHARMA INC., priority 2014, dated 2017).
Values belong to the molecule of their own block, whether it stands above or below them.

How the values were obtained:
SD female rats = assay: Effect of test compound on urethral pressure in anesthetized rats; assay type: in vivo, rat
From the text: SD female rats were anesthetized with urethane and subjected to laparotomy. Then, the bladder apex was incised and a catheter was inserted from the bladder apex. Further, the catheter tip was ligated and fixed to be located in the proximal urethra portion. The catheter was connected to a pressure transducer and an infusion pump. Further, a catheter for administrating the compound was fitted into the femoral vein. Physiological saline was continuously infused into the urethra and the perfusion pressure in the urethra was measured. After the urethral pressure was stabilized, the test compound that had been dissolved in physiological saline, or physiological saline including 5% dimethylacetamide and 0.5% Cremophor was administered intravenously at 0.01 mg/kg or 0.1 mg/kg, and a change in urethral pressures was measured.
Further, the results of administering an active metabolite of midodrine (ST-1059: purchased from CHEMIZON) (J. Urology, 118, 980-982 (1977)) which is an α1 adrenoceptor agonist and is confirmed to have a clinical effect on stress urinary incontinence at doses, 0.01 mg/kg and, 0.1 mg/kg in rats, presumed to correspond to the clinical doses are referenced and shown in the Tables below.
The increment value in the urethral pressures of ramelteon and the Example compounds of the present invention at the time of administration are shown in Table 3. Ex represents Example No. of the test compound and N.T represents Not Tested.

human MT2 receptor = target: T1, human MT2 receptor (Homo sapiens, UniProt P49286); assay: Activation of human MT2 receptor in receptor-expressing cells, intracellular Ca2+ by FLIPR; assay type: cell-based; settings: for EC50: HEK293 cells stably expressing human MT2 and Gq/i chimeric G protein, Ca2+ FLIPR; for Emax: maximum reaction by ramelteon taken as 100%
T1 construct: expressed in transfected cells
T1 sequence (P49286 1-362): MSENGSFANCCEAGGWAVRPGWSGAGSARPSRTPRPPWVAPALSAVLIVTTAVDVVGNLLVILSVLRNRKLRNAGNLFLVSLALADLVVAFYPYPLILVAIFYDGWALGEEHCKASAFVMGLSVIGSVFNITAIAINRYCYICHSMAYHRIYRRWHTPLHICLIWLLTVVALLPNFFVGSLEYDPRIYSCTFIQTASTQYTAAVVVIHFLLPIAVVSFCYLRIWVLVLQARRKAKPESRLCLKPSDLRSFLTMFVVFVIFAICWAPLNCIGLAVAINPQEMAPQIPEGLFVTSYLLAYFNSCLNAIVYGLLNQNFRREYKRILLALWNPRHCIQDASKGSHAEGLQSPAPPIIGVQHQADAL

[1] = CSF-to-plasma unbound concentration ratio in rat after intravenous administration; assay type: in vivo; settings: for Kp uu at 0.25 h: 15 minutes after intravenous administration
Experimental: A test compound (100 μg/mL, 50% acetonitrile solution) at 1% (v/v) with respect to the amount of the plasma was added to rat plasma, and dispensed to a sample for a supernatant and a sample for the plasma. The sample for a supernatant was ultracentrifuged at 436,000×g and 37° C. for 140 minutes, and the sample for the plasma was incubated at 37° C. for 140 minutes.
After 140 minutes, the sample for a supernatant after the ultracentrifugation and the sample for the plasma were taken, and mixed with the blank plasma or the blank supernatant, respectively. Acetonitrile including an internal standard material was added to each of the samples with the removal of protein, and after the centrifugation at 2150×g and 4° C. for 10 minutes the supernatant was injected into LC-MS/MS.
The unbound fraction in the plasma was calculated by the following equation.
To the plasma of a rat was added a test compound (0.2 mM, 50% acetonitrile solution) in an amount corresponding to 1% (v/v) of the plasma amount, and 200 μL of obtained plasma sample was filled into a plasma chamber of a RED device insert. A buffer chamber was filled with 350 μL of PBS, followed by performing equilibrium dialysis by stirring in a CO2 incubator at 37° C. for 16 hours. The sample after the completion of the equilibrium dialysis was recovered and the volume of the plasma sample was measured. To the plasma sample after the completion of the equilibrium dialysis were added PBS, a 20 mM ammonium formate buffer, and acetonitrile including an internal standard material. Similarly, to the PBS sample after the completion of the equilibrium dialysis was added a blank plasma, a 20 mM ammonium formate buffer, and acetonitrile including an internal standard material. This sample was left to stand at 4° C. for 30 minutes and then centrifuged 1500×g for 10 minutes, and the supernatant was measured by LC-MS/MS. The unbound fraction in the plasma was calculated by the following equation. fp=Cf/{(Cp−Cf)(V/V0)+Cf}
At 15 minutes after intravenously administration of the test compound to the rats, the plasma and CSF were collected. A 50% acetonitrile solution and an acetonitrile including internal standard material were added to the collected plasma or CSF. After centrifuging this sample at 4° C. and 2150×g for 10 minutes, the supernatant was measured by LC-MS/MS, and the total concentration of the test compound in the plasma (Cplasma,t) and the concentration of the test compound in CSF (CCSF) were obtained. The unbound concentration in the plasma (Cplasma,u) of the test compound and the CSF-to-plasma unbound concentration ratio (Kp,uu,CSF) of the test compound was calculated by the following equation.
(§1) The Kp,uu,CSF values and the Kp,brain values of ramelteon and some Example compounds of the present invention are shown in Table 4. Ex represents Example No. of the test compound. Unless otherwise specified, the Kp,uu,CSF was calculated using the fp values determined by an ultracentrifugation method. Further, N.T. represents Not Tested.
(Ramelteon represents the values of Kp,uu,CSF after 10 minutes after the intravenous administration. Further, the Kp,uu,CSF of Examples 37 and 38 was calculated using the fp values determined by an equilibrium dialysis method. In addition, N.D. denotes the concentration of the test compound in CSF that is no higher than the detection limit.)

human MT1 receptor = target: T2, human MT1 receptor (Homo sapiens, UniProt P48039); assay: Activation of human MT1 receptor in receptor-expressing cells, intracellular Ca2+ by FLIPR; assay type: cell-based; settings: for EC50: HEK293EBNA1 cells stably expressing human MT1 and Gq/i chimeric G protein, Ca2+ FLIPR; for Emax: maximum reaction by ramelteon taken as 100%
T2 construct: expressed in transfected cells
T2 sequence (P48039 whole entry): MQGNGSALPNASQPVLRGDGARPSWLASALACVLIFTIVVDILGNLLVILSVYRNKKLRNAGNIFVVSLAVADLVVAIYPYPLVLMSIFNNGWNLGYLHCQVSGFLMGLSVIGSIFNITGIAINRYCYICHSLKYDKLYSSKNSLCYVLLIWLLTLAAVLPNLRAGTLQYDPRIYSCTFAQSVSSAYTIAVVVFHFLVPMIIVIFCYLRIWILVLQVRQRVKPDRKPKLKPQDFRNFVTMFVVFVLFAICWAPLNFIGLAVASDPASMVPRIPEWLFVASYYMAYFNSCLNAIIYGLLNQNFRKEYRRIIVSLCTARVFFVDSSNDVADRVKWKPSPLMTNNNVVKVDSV

rat = assay: Measurement test of electroencephalogram in rat (sleep-awake cycle); assay type: in vivo
From the text: After the completion of a quarantine period, the animals showing no abnormal health condition were subjected to an electroencephalogram electrode chronic implantation surgery with reference to brain atlas of Pellegrino (Plenum Press, New York (1979)), or the like. Under anesthesia with pentobarbital sodium, the rat was calibrated in a brain stereotaxic apparatus. In the frontal cortex, a monopolar silver ball electrode having a diameter of the tip of about 1 mm was placed on a hard film of the brain. Into the hippocampus, a laminated bipolar electrodes made of stainless steel was stuck. The reference electrode was screwed around the olfactory brain. Further, as for the electromyogram measurement, the lead wire was implanted in the both electrodes about 1 cm between the electrodes in the neck portion. The other end was exposed to the head portion subcutaneously. The electrodes and the lead wires were subjected to soldering with connector sockets and fixed to the skull with a dental resin or the like.
The rats were accommodated in a measurement cage under rat feeding and water supply on the morning of the day of administration, and accustomed to the measurement environment. After measuring the weight using an electronic scale balance, a lead wire and a connector socket were connected 30 minutes or more before the start of the electroencephalogram measurement, and the rat was accustomed in the measurement state under no anesthesia and no custody. The test compounds were intraperitoneally or orally administered to the rats and the electroencephalogram was measured continuously until 6 hours after the administration.
Ramelteon: solvent, 0.1 mg/kg, 1 mg/kg, and 10 mg/kg; intraperitoneal administration
Example 1: solvent, 3 mg/kg, 30 mg/kg, and 300 mg/kg; oral administration
Example 6: solvent, 10 mg/kg, 30 mg/kg, and 300 mg/kg; oral administration
The electrical signals of electroencephalogram and of electromyogram were applied to an electroencephalogram system and an electroencephalogram frequency analysis program of a personal computer was used to acquire the wave form of the electroencephalogram from the electroencephalograph system. In addition, the image signals of the electroencephalogram waveform were applied to an EEG video system and recorded on DVD-R using a DVD recorder. The behavior observation was carried out through a video camera at the same time as the electroencephalogram measurement and the images were also recorded on DVD-R using DVD recorder.
The presence or absence of abnormality in the electroencephalogram waveform in up to 6 hours from immediately after the administration, to each animal, respectively, was observed.
The analysis of a sleep-awake cycle was carried out using a sleep stage display-supporting program (MTS50061B, Japan Santec Corporation) based on the electroencephalogram waveforms acquired with an electroencephalogram frequency analysis program. Using the index of electroencephalogram, electromyogram, and behavior, the sleep steps were classified into an awake phase, a rest phase, a slow wave light sleep (S.W.L.S.) phase, a slow wave deep sleep (S.W.D.S.) phase, and a fast wave sleep (F.W.S., REM sleep) phase. Further, the rest phase, the slow wave light sleep phase, and the slow wave deep sleep phase were summed to determine a slow wave sleep (S.W.S., Non-REM sleep) phase. […] As the assessment criteria in the respective sleep steps, the criteria described in Japanese Pharmacological Journal 84, 25-89 (1984) were used.

[2] = Brain-to-plasma concentration ratio in rat after intravenous administration; assay type: in vivo; settings: brain and plasma, 15 minutes after intravenous administration
Experimental: At 15 minutes after intravenously administration of the test compound to the rats, the plasma and brain were collected. A 50% acetonitrile solution and an acetonitrile including internal standard material were added to the collected plasma. The collected brain was added to a 2-fold volume of PBS and homogenized. A 50% acetonitrile solution and an acetonitrile including internal standard material were added to the brain homogenate. The sample was centrifuged at 4° C. and 2150×g for 10 minutes, the supernatant was measured by LC-MS/MS, and the total concentration of the test compound in the brain (Cbrain) and the total concentration of the test compound in the plasma (Cplasma,t) were obtained. The brain-to-plasma concentrations ratio (Kp,brain) was calculated by the following equation.
as §1

[3] = system: isolated urethra in a rat; settings: Patent Document 5; cited from earlier work
[4] = oral, any of the doses 3, 30 and 300 mg/kg

EC50 (human MT2 receptor): 14 nM | Emax (human MT2 receptor): 119% | Kp uu at 0.25 h ([1]; CSF and plasma (unbound), iv, fp by ultracentrifugation method): 0.05 | EC50 (human MT1 receptor): 3.9 nM | Emax (human MT1 receptor): 95%
SMILES: CCC(=O)NCCc1c(C)[nH]c2ccc(OCCOc3ccn(C)n3)cc12 [Example 1, N-[2-{2-methyl-5-(2-[(1-methyl-1H-pyrazol-3-yl)oxy]ethoxy}-1H-indol-3-yl)ethyl]propanamide]
urethral pressure increasing action (SD female rats; dose of 0.01 mg/kg): good urethral pressure increasing action | occupancy in the respective sleep steps of electroencephalogram (rat; [4]): no change in the occupancy in the respective sleep steps of electroencephalogram could be seen | sleep action (rat; [4]): there was no sleep action

EC50 (human MT2 receptor): 13 nM | Emax (human MT2 receptor): 105% | Kp uu at 0.25 h ([1]; CSF and plasma (unbound), iv, fp by equilibrium dialysis method): 0.08 | EC50 (human MT1 receptor): 2 nM | Emax (human MT1 receptor): 97% | Kp at 0.25 h [2]: 0.02
SMILES: CC(=O)NC[C@H](C)c1c[nH]c2cc(Cl)c(OCCOc3ccn(C)n3)cc12 [Example 38, N-[(2R)-2-(6-chloro-5-{2-[(1-methyl-1H-pyrazol-3-yl)oxy]ethoxy}-1H-indol-3-yl)propyl]acetamide]

SMILES: COc1ccc2[nH]cc(CCNC(C)=O)c2c1 [Melatonin, melatonin]
contraction of isolated urethra, increase of urethral pressure [3]: contract the isolated urethra in a rat to increase the urethral pressure of the rat

Kp,uu,CSF ([1]; 10 minutes after the intravenous administration): 1.74 | Kp uu at 10 min ([1]; CSF and plasma (unbound), iv, 10 minutes after the intravenous administration): > 1 | occupancy of the respective sleep steps (rat; 1 mg/kg intraperitoneal, up to 6 hours): significantly increases
SMILES: CCC(=O)NCC[C@@H]1CCc2ccc3c(c21)CCO3 [Ramelteon, ramelteon, reference compound]
contraction of isolated urethra, increase of urethral pressure [3]: contract the isolated urethra in a rat to increase the urethral pressure of the rat | Increment value in the urethral pressures compared with ST-1059 (SD female rats; intravenous): equal to or more than that of ST-1059 | occupancy of the sleep step of electroencephalogram (rat; 0.1 mg/kg intraperitoneal, up to 6 hours): there is a tendency that the occupancy of the sleep step of electroencephalogram from a dose of 0.1 mg/kg increases | sleep action (rat; intraperitoneal 0.1, 1 and 10 mg/kg): there is a sleep action

SMILES: COc1cc2c([C@@H](C)CNC(C)=O)c[nH]c2cc1Cl [TIK-301]
contraction of isolated urethra, increase of urethral pressure [3]: contract the isolated urethra in a rat to increase the urethral pressure of the rat

SMILES: COc1ccc2cccc(CCNC(C)=O)c2c1 [agomelatine]
contraction of isolated urethra, increase of urethral pressure [3]: contract the isolated urethra in a rat to increase the urethral pressure of the rat

SMILES: CCC(=O)NC[C@@H]1C[C@H]1c1cccc2c1CCO2 [tasimelteon]
contraction of isolated urethra, increase of urethral pressure [3]: contract the isolated urethra in a rat to increase the urethral pressure of the rat
